Among the data in ChEMBL document CHEMBL1139459, “Effects of pH on the cytotoxicity of sodium trioxodinitrate (Angeli's salt)” (J Med Chem, 2004) are pKa values, retold here.

Data set [1] in a line: pK1 was determined. It is filed as ADME. The conditions noted are these: read-out: pK1.
A short description of data set [2]: pK2 was determined. In kind it is ADME. The conditions noted are these: read-out: pK2.

SMILES strings stand for the structures.

`[O-]/[N+](O)=N\O`: the values for the pKa in data set [1] and in data set [2] were 3 and 9.35, respectively.
